Test [1] concerns the target T1, CXCR1 (Homo sapiens, UniProt P25024).
T1 construct: β-galactosidase enzyme-complementation fragment (PathHunter system); host or cells: U2OS (U2OS hCXCR1 b-arrestin)
T1 sequence (P25024 1-350): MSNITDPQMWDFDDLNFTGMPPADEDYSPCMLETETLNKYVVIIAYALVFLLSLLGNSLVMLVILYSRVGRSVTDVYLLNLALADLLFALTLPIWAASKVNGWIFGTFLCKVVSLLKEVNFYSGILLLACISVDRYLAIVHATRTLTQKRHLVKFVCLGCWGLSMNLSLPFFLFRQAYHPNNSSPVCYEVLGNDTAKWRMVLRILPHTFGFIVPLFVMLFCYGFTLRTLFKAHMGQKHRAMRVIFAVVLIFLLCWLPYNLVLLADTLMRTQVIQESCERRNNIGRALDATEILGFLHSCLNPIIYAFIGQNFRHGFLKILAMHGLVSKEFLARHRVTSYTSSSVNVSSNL
Description: β-arrestin2 recruitment assay, antagonism of CXCL8 stimulation (U2OS hCXCR1 b-arrestin). It counts as cell-based. To be noted: U2OS hCXCR1 b-arrestin cells, CXCL8-stimulated. As to the method: (§1) Antagonism of CXCL8-Stimulated β-Arrestin2 Recruitment. […] To monitor direct interaction of CXCR2 or CXCR1 with β-arrestin2, we used a β-arrestin2 recruitment assay for CXCR2 or CXCR1 based on enzyme complementation of β-galactosidase (Olson and Eglen, 2007), as established by DiscoveRx Corporation. […] All CXCR2-antagonists are tested in dose-depedant manner (firsty dose 10 μM).
(§2) PathHunter HEK293-hCXCR2 b-arrestin cells or U2OS hCXCR1 b-arrestin cells (both from DiscoveRx Corporation) were plated out overnight at 10,000 cells/well (384-well format) in 50 μl of Opti MEM I+1% bovine serum albumin. Cells were treated with CXR2 antogonist or vehicule (Opti MEM I) and CXCL-8 at the same time for 90 min.; thereafter, 25 μl of PathHunter Detection Reagents (DiscoveRx Corporation) was added. After an incubation of 60 min at room temperature, β-galactosidase-induced luminescence upon β-arrestin-CXCR1/2 interaction was measured in an TopCount Reader (Perkin Elmer). Functional data were evaluated by a nonlinear curve fitting procedure using XLFit4 (IDBS).
In general terms: Recruitment of arrestin is a read-out of receptor activation apart from second messengers.

The target of test [2] is T2, CXCR2 (Homo sapiens, UniProt P25025).
T2 sequence (P25025 1-360): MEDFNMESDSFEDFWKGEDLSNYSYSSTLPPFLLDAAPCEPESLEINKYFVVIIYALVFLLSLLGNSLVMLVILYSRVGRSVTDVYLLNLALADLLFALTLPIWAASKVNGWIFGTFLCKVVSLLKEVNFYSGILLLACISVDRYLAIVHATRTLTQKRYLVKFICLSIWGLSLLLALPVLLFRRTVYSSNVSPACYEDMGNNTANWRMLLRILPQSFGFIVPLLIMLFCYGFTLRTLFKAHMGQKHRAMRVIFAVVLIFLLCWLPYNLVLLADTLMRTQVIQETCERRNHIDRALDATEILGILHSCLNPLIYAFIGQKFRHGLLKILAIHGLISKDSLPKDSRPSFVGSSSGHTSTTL
Description: β-arrestin2 recruitment assay, antagonism of CXCL8 stimulation (PathHunter HEK293 hCXCR2 b-arrestin). It counts as cell-based. To be noted: PathHunter HEK293 hCXCR2 b-arrestin cells, CXCL8-stimulated. As to the method:
as §1, §2

The test system of test [3] is hairless SKH1 mice. Description: RTX-induced vasodilation in a neurogenic skin inflammation model (laser Doppler perfusion imaging). It counts as in vivo. To be noted: capsazepine at 5%, topical; RTX 0.03% on the back of SKH1 mice. The protocol:
The animal model of neurogenic skin inflammation was induced by a unique topical application of resiniferatoxin (RTX), 0.03% on the back of hairless SKH1 mice. RTX is an ultrapotent capsaicin analog and RTX exposure evokes neuropeptides release. Most of these neuropeptides have vasodilatory properties and one component of RTX-induced neurogenic inflammation is the dermal vasodilation. In the present RTX-model, the objective assessment of the skin vasodilation was evaluated by laser Doppler perfusion imaging.
Material and Method: • Measurement of RTX-Induced Vasodilation
Adult female hairless SKH1 mice aged 7-9 weeks are obtained from Charles River (France). Anaesthesia with ketamine/xylazine is performed 10 minutes before treatment and body temperature is maintained at 35° C.-37° C. using an automated heating pad. A skin area of 1.8×1.5 cm on the back of the mouse is divided in two regions of interest. One region is treated with the vehicle, the other one with RTX 0.03%. […] The skin blood perfusion is evaluated every 2 minutes on the back of the mouse with a Laser Doppler perfusion imaging PIM3 (Perimed, France). […] Images are analysed and the yield of two parameters, the erythematous surface and the blood perfusion intensity ratio, is calculated as a relative area of vasodilation (mm^2). […] Results are expressed as mean±SEM. […]

Consider two molecules from US20130231393A1, “USE OF SQUARAMIDE IN THE PREVENTION AND/OR TREATMENT OF ROSACEA” (GALDERMA RESEARCH & DEVELOPMENT, priority 2010, published 2013).

The IC50 is the concentration at which inhibition is half-maximal.

For `CC[C@@H](Nc1c(Nc2cccc(C(=O)N(C)C)c2O)c(=O)c1=O)c1ccccc1` [3-[3,4-Dioxo-2-((R)-1-phenyl-propylamino)-cyclobut-1-enylamino]-2-hydroxy-N,N-dimethyl-benzamide], the IC50 came to 148 nM in test [1] and 7 nM in test [2]. Take `Oc1cc2c(cc1O)CN(C(=S)NCCc1ccc(Cl)cc1)CCC2` [capsazepine]: in test [3], the “relative area of vasodilation, AUC decreased by” value was found to be 13%.
